From patent US4767720A, “Antidigoxin antibodies” (HSC Research Development Corporation, priority 1985, dated 1988)
“Also recorded” adds a separate entry of the source.

Experiments:
[1] = test system: antidigoxin antibody raised against a bovine serum albumin-digoxin conjugate immunogen; settings: background statement on prior-art antibodies; cited from earlier work
[2] = test system: commercial antidigoxin antibodies raised against BSA periodate conjugated digoxin; test: 125I-digoxin RIA using commercial antidigoxin antibodies (whole serum or affinity purified); format: binding; settings: for Concentration Measured by RIA Using Affinity Purified Antibody: antibody affinity purified from the same immune serum; for Concentration Measured by RIA Using whole Serum: commercial antidigoxin antibodies, true concentration of antigen given
Procedure: Antidigoxin antibodies raised against BSA periodate conjugated digoxin were purchased from Antibodies Incorporated (Davis, Calif.) and Wien Laboratories (Succasunna, N.J.). Antidigoxin activity was determined using the ^125 I-digoxin radioimmune assay as previously described. Soldin, S; Papanastasion-Diamand, A; Heyes, J;, Lingwood C. A. and Olley, P. (1984) Are Immunoassays for Digoxin Reliable? Clin. Biochem. 17, 317-320. The immune serum was precipitated with 40% ammonium sulfate. The precipitate was redissolved and dialysed against phosphate buffered saline pH 7.4 (PBS). Antidigoxin antibodies were further purified by immunoaffinity chromatography. Digoxin was covalently linked to agarose by use of a photoactive heterobifunctional crosslinking agent as described in Lingwood, C. A. (1984) Production of Glycolipid Affinity Matrices by Use of Heterobifunctional Crosslinking Agents, J. Lipid Res. 25, 1010-1012. Amino hexyl agarose was treated with 2 mM hydroxysuccinimidyl azidobenzoate in the dark for 1 hour at room temperature. The beads were washed with water and 2 mg ^3 H-digoxin (1 mg/ml enthanol/water 1:1) was added. The beads were rotoevaporated to dryness when the digoxin was absorbed onto the beads. The dry beads were then irradiated for 2 min/1 cm from a Mineralight II UV source with stirring, when the digoxin is covalently attached to the agarose beads. The matrix was washed with 100 column volumes 50% ethanol and 50 column volumes water. The wash fractions were concentrated and unbound ^3 H-digoxin was measured. The amount of digoxin coupled/ml agarose was calculated (0.2 μmoles/ml beads).
The immunoglobulin fraction from 1 ml immune serum was applied and the digoxin column was washed with PBS. Antidigoxin activity was measured using the automated ^125 I-RIA method. […] Specific antibodies were eluted by addition of 10 ml 1M KI followed by 10 ml 1M KSCN. The eluted fractions were dialysed, concentrated vs sucrose, dialysed and used in the RIA.
Cross-reactivity of commercial antidigoxin antibodies towards the digoxin metabolites in which one, two and three sugars have been removed (digoxigenin bisdigitoxoside, monodigitoxoside and […] respectively) was measured. […] Purification of the antidigoxin antibodies by affinity chromatography considerably reduces this cross reactivity such that the metabolites are now recognized on a one to one basis relative to digoxin.

[3] = test system: antibodies raised against ozonized digoxin-BSA; format: binding, rabbit; settings: for cross-reactivity index: calculated from the molar concentration required to reduce the 3H-digoxin binding by 50%; for Digoxin apparent value measured by [3H]digoxin RIA: metabolite alone at the actual concentration of the line, actual digoxin 0; for competition for 3H-digoxin binding / cross reaction with the new antibody: 3H-digoxin RIA, FIG. 7a and 7b
Procedure: The ^3 H-digoxin radioimmunoassay method was adapted from that previously described in Cerceo E. and Elloso CA (1972) Factors Affecting the Radioimmunoassay of Digoxin, Clin. Chem. 18, 539-542. Briefly, tubes containing 0-30 ng ^3 H-digoxin (3000 dpm) in PBS were incubated at room temperature for 15 mins in the presence of 1/20 diluted antidigoxin serum. Ice cold dextran coated charcoal was added and incubated at 4° C. for 10 mins. This mixture was centrifuged and the ^3 H-digoxin remaining in the supernate was counted in a liquid scintillation spectrometer. Controls in the absence of serum and for non-immune serum were performed in parallel.
The degree of cross reactivity of the digoxin metabolites was monitored using the ^3 H-digoxin radioimmunoassay.

[4] = test system: antibodies generated against periodate-oxidized digoxin-BSA conjugate; format: binding; settings: metabolite alone at the actual concentration of the line, actual digoxin 0
Source text: A comparison was made between the antiserum of Example 4 and the commercially available antidigoxin serum using FPIA (fluorescence polarization immuno assay) to measure the digoxin concentration for solutions containing known levels of the digoxin metabolites as identified in the following Table 3.

**Q.** With `CC1OC(OC2C(O)CC(OC3C(O)CC(OC4CCC5(C)C(CCC6C5CC(O)C5(C)C(C7COC(=O)C7)CCC65O)C4)OC3C)OC2C)CC(O)C1O` (stereo not shown) [dihydrodigoxin] as the molecule, how does the “cross-reactivity with the antibodies” value [1] read?
**A.** Its value is “little or no cross-reactivity”.

**Q.** With `C[C@H]1O[C@@H](O[C@H]2[C@@H](O)C[C@H](O[C@H]3CC[C@@]4(C)[C@H](CC[C@@H]5[C@@H]4C[C@@H](O)[C@]4(C)[C@@H](C6=CC(=O)OC6)CC[C@]54O)C3)O[C@@H]2C)C[C@H](O)[C@@H]1O` [Digoxigenin bisdigitoxide, digoxigenin bisdigitoxide] as the molecule, how does the “Concentration Measured by RIA Using Affinity Purified Antibody” value [2] read?
**A.** Its value is 6.3 nmol/L.

**Q.** And the “Concentration Measured by RIA Using whole Serum” value [2]?
**A.** The value was 25.2 nmol/L.

**Q.** What about the cross-reactivity index [3] of the same molecule?
**A.** The cross-reactivity index was 14.6%.

**Q.** And the “Digoxin apparent value measured by [3H]digoxin RIA” value [3]?
**A.** Its value is 0.8 nmol/L.

**Q.** And the “Digoxin apparent value measured by FPIA” value [4]?
**A.** The value was 6.05 nmol/L.

**Q.** What about the “cross-reactivity with the antibodies” value [1] of the same molecule?
**A.** Its value is “react with the antibodies”.

**Q.** What does the source list for `C[C@H]1O[C@@H](O[C@H]2CC[C@@]3(C)[C@H](CC[C@@H]4[C@@H]3C[C@@H](O)[C@]3(C)[C@@H](C5=CC(=O)OC5)CC[C@]43O)C2)C[C@H](O)[C@@H]1O` [Digoxigenin monodigitoxide]?
**A.** Concentration Measured by RIA Using Affinity Purified Antibody [2]: 5.0 nmol/L; Concentration Measured by RIA Using whole Serum [2]: 24.3 nmol/L; cross-reactivity index [3]: 3.7%; Digoxin apparent value measured by [3H]digoxin RIA [3]: 0.7 nmol/L; Digoxin apparent value measured by FPIA [4]: 10 nmol/L; cross-reactivity with the antibodies [1]: react with the antibodies

**Q.** Which “competition for 3H-digoxin binding / cross reaction with the new antibody” value [3] does the source give for `C[C@@H](O)[C@@H](O)[C@@H](O)CC=O` [digitoxose] here?
**A.** Its value is “does not compete for digoxin binding; also recorded: does not cross react at all”.

**Q.** For `C[C@H]1O[C@@H](O[C@H]2[C@@H](O)C[C@H](O[C@H]3[C@@H](O)C[C@H](O[C@H]4CC[C@@]5(C)[C@H](CC[C@@H]6[C@@H]5CC[C@]5(C)[C@@H](C7=CC(=O)OC7)CC[C@]65O)C4)O[C@@H]3C)O[C@@H]2C)C[C@H](O)[C@@H]1O` [Digitoxin], which “competition for 3H-digoxin binding / cross reaction with the new antibody” value [3] is on record?
**A.** The value was “considerable reduced reactivity”.

**Q.** What about the cross-reactivity index [3] of the same molecule?
**A.** The cross-reactivity index was 11%.

**Q.** What about the “Digoxin apparent value measured by [3H]digoxin RIA” value [3] of the same molecule?
**A.** The value was 0 nmol/L.

**Q.** What about the “Digoxin apparent value measured by FPIA” value [4] of the same molecule?
**A.** Its value is 9.6 nmol/L.

**Q.** Which “competition for 3H-digoxin binding / cross reaction with the new antibody” value [3] does the source give for `CC1OC(OC2C(O)CC(OC3C(O)CC(OC4CCC5(C)C(CCC6C5CC(O)C5(C)C(C7=CC(=O)OC7)CCC65O)C4)OC3C)OC2C)CC(O)C1O` (stereo not shown) [digoxin, Digoxin] here?
**A.** Its value is “effectively competed out”.

**Q.** What does the source list for `C[C@]12CC[C@H](O)C[C@H]1CC[C@@H]1[C@@H]2C[C@@H](O)[C@]2(C)[C@@H](C3COC(=O)C3)CC[C@]12O` (stereo partly shown) [Dihydrodigoxigenin]?
**A.** Concentration Measured by RIA Using Affinity Purified Antibody [2]: 0.8 nmol/L; Concentration Measured by RIA Using whole Serum [2]: 0.8 nmol/L; cross-reactivity with the antibodies [1]: little or no cross-reactivity

**Q.** With `C[C@]12CC[C@H](O)C[C@H]1CC[C@@H]1[C@@H]2C[C@@H](O)[C@]2(C)[C@@H](C3=CC(=O)OC3)CC[C@]12O` [Digoxigenin] as the molecule, how does the “Concentration Measured by RIA Using Affinity Purified Antibody” value [2] read?
**A.** The value was 6.9 nmol/L.

**Q.** And the “Concentration Measured by RIA Using whole Serum” value [2]?
**A.** The value was 25.2 nmol/L.

**Q.** And the “competition for 3H-digoxin binding / cross reaction with the new antibody” value [3]?
**A.** Its value is “ineffective antigen”.

**Q.** And the “Digoxin apparent value measured by [3H]digoxin RIA” value [3]?
**A.** The value was 0 nmol/L.

**Q.** And the “Digoxin apparent value measured by FPIA” value [4]?
**A.** The value was 13.8 nmol/L.

**Q.** What about the “cross-reactivity with the antibodies” value [1] of the same molecule?
**A.** Its value is “react with the antibodies”.
